Experimental data as given in PMC13266999, “Designing Antibiotics with Inherent Resistance to Efflux as a Strategy to Revive Discovery against Multidrug-Resistant Pathogens” (Journal of Medicinal Chemistry, 2026).
Converted amounts (≈) assume the structure as drawn. Read-outs that look alike come from different tables or passages of the source.

Tests used:
E. faecalis = test: MIC (microbroth dilution); format: cell-based, Enterococcus faecalis; conditions: for MIC: Enterococcus faecalis
Summary of the method: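 Broth microdilution MICs, defined as lowest compound level without visible growth (OD600 read), on bacteria grown overnight to stationary phase then diluted. Twofold compound dilutions; some wells also received PMBN, final 30 μg/mL, to permeabilize the outer membrane.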

S. epidermidis = test: MIC (microbroth dilution); format: cell-based, Staphylococcus epidermidis; conditions: Staphylococcus epidermidis, read-out: MIC
Method: All bacteria were maintained on tryptic soy agar (TSA), except Streptococcus spp., which were maintained on Columbia agar plates containing 5% horse blood. […] Bacteria were grown to stationary phase in liquid culture overnight, with shaking at 200 rpm, before being back diluted to the relevant starting concentration for each assay below. MICs were measured by the microbroth dilution method. […] Absorbance at OD600 was read on a CLARIOstar spectrophotometer (BMG Labtech) and the MIC was defined as the minimum concentration of compound where no visible growth was detected. […] MICs were also performed in the presence of the outer membrane permeator, polymyxin b nonapeptide (PMBN) following the same MIC method but with the following variation. The 2-fold dilution series of compound was prepared as above, then 50 μL of PMBN at a final concentration of 30 μg/mL was added to relevant wells, while 50 μL/well of blank media was added to the remaining wells. Bacteria were then added at 50 μL/well for a starting concentration as above. […] The MICs were read and defined as above. All animal procedures were performed by the contract research organization Pharmacology Discovery Services Taiwan in accordance with the Guide for the Care and Use of Laboratory Animals. The procedures were approved by the Institutional Ethics Committee of Pharmacology Discovery Services Taiwan, Ltd. (approval no. AB127662), in compliance with animal welfare legislation in Taiwan.

A. baumannii strain AYE = test: Time-kill assay; format: cell-based; conditions: 4 × MIC
Method: Time-kill assays were performed as defined previously.

Neisseria gonorrhoeae = test: MIC; format: cell-based
[1] = male, ICR, mouse, in vivo, po
[2] = test system: major human CYP isoforms other than CYP3A (midazolam substrate); test: Cytochrome P450 inhibition panel; conditions: human recombinant CYP enzymes in microsomal preparations
Method: Cytochrome P450 inhibition was assessed in vitro using human recombinant enzymes in microsomal preparations. […] Enzyme activity was quantified by monitoring formation of substrate-specific metabolites, and percent inhibition was calculated relative to vehicle control.
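Throughout, for Response (death/test): male ICR mice given oral doses under a stepwise escalation scheme to find the highest tolerated dose.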

Structure (SMILES): Cc1cc(C)nc(N[C@@H]2CCN(c3c(F)cc4c(=O)c(C(=O)O)cn5c4c3OC[C@@H]5C)C2)n1 [Compound 50, (S)-10-((R)-3-((4,6-Dimethylpyrimidin-2-yl)amino)pyrrolidin-1-yl)-9-fluoro-3-methyl-7-oxo-2,3-dihydro-7H-[1,4]oxazino[2,3,4-ij]quinoline-6-carboxylic acid]
- MIC (E. faecalis; ATCC29212, ATCC 29212, read-out: MIC): 0.25 µg/mL (≈ 0.551 µM)
- MIC (E. faecalis; ATCC51299): 0.125 µg/mL (≈ 0.276 µM)
- MIC (E. faecalis; ATCC51575, VanB (ATCC 51575), read-out: MIC): 0.25 µg/mL (≈ 0.551 µM)
- MIC (E. faecalis; ATCC700802): 0.125 µg/mL (≈ 0.276 µM)
- MIC (E. faecalis; CCUG47775, VanA (CCUG 47775), read-out: MIC): 0.5 µg/mL (≈ 1.1 µM)
- MIC range (E. faecalis; clinical isolates, Table S11B): 0.125 to 0.5 µg/mL
- MIC (S. epidermidis; ATCC12228, ATCC 12228): 0.03 µg/mL (≈ 0.0662 µM)
- MIC (S. epidermidis; ATCC 51625 / MRSE, MRSE (ATCC 51625)): 0.03 µg/mL (≈ 0.0662 µM)
- MIC (S. epidermidis; NRS101): 0.03 µg/mL (≈ 0.0662 µM)
- MIC (S. epidermidis; GIS (NRS7)): 0.5 µg/mL (≈ 1.1 µM)
- MIC (S. epidermidis; GIS (NRS8)): 1 µg/mL (≈ 2.21 µM)
- MIC (S. epidermidis; GIS (NRS60)): 0.06 µg/mL (≈ 0.132 µM)

Structure (SMILES): C[C@H]1COc2c(N3CC[C@@H](Nc4ncccn4)C3)c(F)cc3c(=O)c(C(=O)O)cn1c23 [Compound 46, (S)-9-Fluoro-3-methyl-7-oxo-10-((R)-3-(pyrimidin-2-ylamino)pyrrolidin-1-yl)-2,3-dihydro-7H-[1,4]oxazino[2,3,4-ij]quinoline-6-carboxylic acid]
- time-kill profile (A. baumannii strain AYE): rapid bactericidal activity
- MIC (Neisseria gonorrhoeae; 2007NG046): 4 µg/mL (≈ 9.4 µM)
- MIC (Neisseria gonorrhoeae; 2008NG057): 2 µg/mL (≈ 4.7 µM)
- MIC (Neisseria gonorrhoeae; 2008NG097): 2 µg/mL (≈ 4.7 µM)
- MIC (Neisseria gonorrhoeae; 2009NG514): 2 µg/mL (≈ 4.7 µM)
- MIC (Neisseria gonorrhoeae; 2010NG122): 2 µg/mL (≈ 4.7 µM)
- MIC (Neisseria gonorrhoeae; ATCC49226, ATCC 49226): ≤ 0.03 µg/mL
- MIC (Neisseria gonorrhoeae; ATCC700825, ATCC 700825): ≤ 0.03 µg/mL
- MIC (Neisseria gonorrhoeae; BAA1833, BAA-1833): ≤ 0.03 µg/mL
- MIC (Neisseria gonorrhoeae; BAA1838, BAA-1838): ≤ 0.03 µg/mL
- MIC (Neisseria gonorrhoeae; CCUG57595, CCUG 57595): ≤ 0.03 µg/mL
- MIC (Neisseria gonorrhoeae; CCUG57596, CCUG 57596): 0.125 µg/mL (≈ 0.294 µM)
- MIC (Neisseria gonorrhoeae; CCUG57597, CCUG 57597): 2 µg/mL (≈ 4.7 µM)
- MIC (Neisseria gonorrhoeae; CCUG57598, CCUG 57598): 2 µg/mL (≈ 4.7 µM)
- MIC (Neisseria gonorrhoeae; CCUG57599, CCUG 57599): 0.5 µg/mL (≈ 1.18 µM)
- MIC (Neisseria gonorrhoeae; CCUG57600, CCUG 57600): 1 µg/mL (≈ 2.35 µM)
- MIC (Neisseria gonorrhoeae; CCUG57601, CCUG 57601): ≤ 0.03 µg/mL
- MIC (Neisseria gonorrhoeae; CCUG57602, CCUG 57602): 0.06 µg/mL (≈ 0.141 µM)
- MIC (Neisseria gonorrhoeae; FDA-CDC AR-BANK#0165): 2 µg/mL (≈ 4.7 µM)
- MIC (Neisseria gonorrhoeae; FDA-CDC AR-BANK#0166): 2 µg/mL (≈ 4.7 µM)
- MIC (Neisseria gonorrhoeae; FDA-CDC AR-BANK#0167): ≤ 0.03 µg/mL
- MIC (Neisseria gonorrhoeae; FDA-CDC AR-BANK#0168): 1 µg/mL (≈ 2.35 µM)
- MIC (Neisseria gonorrhoeae; FDA-CDC AR-BANK#0169): 2 µg/mL (≈ 4.7 µM)
- MIC (Neisseria gonorrhoeae; FDA-CDC AR-BANK#0170): 2 µg/mL (≈ 4.7 µM)
- MIC (Neisseria gonorrhoeae; FDA-CDC AR-BANK#0171): 1 µg/mL (≈ 2.35 µM)
- MIC (Neisseria gonorrhoeae; FDA-CDC AR-BANK#0172): 1 µg/mL (≈ 2.35 µM)
- MIC (Neisseria gonorrhoeae; FDA-CDC AR-BANK#0173): 2 µg/mL (≈ 4.7 µM)
- MIC (Neisseria gonorrhoeae; FDA-CDC AR-BANK#0174): 2 µg/mL (≈ 4.7 µM)
- MIC (Neisseria gonorrhoeae; FDA-CDC AR-BANK#0175): ≤ 0.03 µg/mL
- MIC (Neisseria gonorrhoeae; FDA-CDC AR-BANK#0176): 2 µg/mL (≈ 4.7 µM)
- MIC (Neisseria gonorrhoeae; FDA-CDC AR-BANK#0177): ≤ 0.03 µg/mL
- MIC (Neisseria gonorrhoeae; FDA-CDC AR-BANK#0178): 2 µg/mL (≈ 4.7 µM)
- MIC (Neisseria gonorrhoeae; FDA-CDC AR-BANK#0179): ≤ 0.03 µg/mL
- MIC (Neisseria gonorrhoeae; FDA-CDC AR-BANK#0180): 2 µg/mL (≈ 4.7 µM)
- MIC (Neisseria gonorrhoeae; FDA-CDC AR-BANK#0181): ≤ 0.03 µg/mL
- MIC (Neisseria gonorrhoeae; FDA-CDC AR-BANK#0182): 2 µg/mL (≈ 4.7 µM)
- MIC (Neisseria gonorrhoeae; FDA-CDC AR-BANK#0183): 2 µg/mL (≈ 4.7 µM)
- MIC (Neisseria gonorrhoeae; FDA-CDC AR-BANK#0184): 2 µg/mL (≈ 4.7 µM)
- MIC (Neisseria gonorrhoeae; FDA-CDC AR-BANK#0185): 2 µg/mL (≈ 4.7 µM)
- MIC (Neisseria gonorrhoeae; FDA-CDC AR-BANK#0186): 1 µg/mL (≈ 2.35 µM)
- MIC (Neisseria gonorrhoeae; FDA-CDC AR-BANK#0187): 2 µg/mL (≈ 4.7 µM)
- MIC (Neisseria gonorrhoeae; FDA-CDC AR-BANK#0188): 1 µg/mL (≈ 2.35 µM)
- MIC (Neisseria gonorrhoeae; FDA-CDC AR-BANK#0189): 2 µg/mL (≈ 4.7 µM)
- MIC (Neisseria gonorrhoeae; FDA-CDC AR-BANK#0190): 2 µg/mL (≈ 4.7 µM)
- MIC (Neisseria gonorrhoeae; FDA-CDC AR-BANK#0191): 2 µg/mL (≈ 4.7 µM)
- MIC (Neisseria gonorrhoeae; FDA-CDC AR-BANK#0192): 2 µg/mL (≈ 4.7 µM)
- MIC (Neisseria gonorrhoeae; FDA-CDC AR-BANK#0193): ≤ 0.03 µg/mL
- MIC (Neisseria gonorrhoeae; FDA-CDC AR-BANK#0194): ≤ 0.03 µg/mL
- MIC (Neisseria gonorrhoeae; FDA-CDC AR-BANK#0195): 2 µg/mL (≈ 4.7 µM)
- MIC (Neisseria gonorrhoeae; FDA-CDC AR-BANK#0196): 2 µg/mL (≈ 4.7 µM)
- MIC (Neisseria gonorrhoeae; FDA-CDC AR-BANK#0197): 2 µg/mL (≈ 4.7 µM)
- MIC (Neisseria gonorrhoeae; FDA-CDC AR-BANK#0198): 2 µg/mL (≈ 4.7 µM)
- MIC (Neisseria gonorrhoeae; FDA-CDC AR-BANK#0199): ≤ 0.03 µg/mL
- MIC (Neisseria gonorrhoeae; FDA-CDC AR-BANK#0200): 2 µg/mL (≈ 4.7 µM)
- MIC (Neisseria gonorrhoeae; FDA-CDC AR-BANK#0201): 2 µg/mL (≈ 4.7 µM)
- MIC (Neisseria gonorrhoeae; FDA-CDC AR-BANK#0202): ≤ 0.03 µg/mL
- MIC (Neisseria gonorrhoeae; FDA-CDC AR-BANK#0203): 2 µg/mL (≈ 4.7 µM)
- MIC (Neisseria gonorrhoeae; FDA-CDC AR-BANK#0204): 2 µg/mL (≈ 4.7 µM)
- MIC (Neisseria gonorrhoeae; FDA-CDC AR-BANK#0205): 2 µg/mL (≈ 4.7 µM)
- MIC (Neisseria gonorrhoeae; FDA-CDC AR-BANK#0206): 2 µg/mL (≈ 4.7 µM)
- MIC (Neisseria gonorrhoeae; FDA-CDC AR-BANK#0207): 2 µg/mL (≈ 4.7 µM)
- MIC (Neisseria gonorrhoeae; FDA-CDC AR-BANK#0208): 2 µg/mL (≈ 4.7 µM)
- MIC (Neisseria gonorrhoeae; FDA-CDC AR-BANK#0209): 2 µg/mL (≈ 4.7 µM)
- MIC (Neisseria gonorrhoeae; FDA-CDC AR-BANK#0210): 2 µg/mL (≈ 4.7 µM)
- MIC (Neisseria gonorrhoeae; FDA-CDC AR-BANK#0211): 2 µg/mL (≈ 4.7 µM)
- MIC (Neisseria gonorrhoeae; FDA-CDC AR-BANK#0212): 2 µg/mL (≈ 4.7 µM)
- MIC (Neisseria gonorrhoeae; FDA-CDC AR-BANK#0213): 1 µg/mL (≈ 2.35 µM)
- MIC (Neisseria gonorrhoeae; FDA-CDC AR-BANK#0214): 2 µg/mL (≈ 4.7 µM)
- MIC (Neisseria gonorrhoeae; NCTC13477, NCTC 13477): ≤ 0.125 µg/mL
- MIC (Neisseria gonorrhoeae; NCTC13817, NCTC 13817): 0.5 µg/mL (≈ 1.18 µM)
- MIC (Neisseria gonorrhoeae; NCTC13818, NCTC 13818): 2 µg/mL (≈ 4.7 µM)
- MIC (Neisseria gonorrhoeae; NCTC13819, NCTC 13819): 2 µg/mL (≈ 4.7 µM)
- MIC (Neisseria gonorrhoeae; NCTC13820, NCTC 13820): 2 µg/mL (≈ 4.7 µM)
- MIC (Neisseria gonorrhoeae; NCTC13821, NCTC 13821): 2 µg/mL (≈ 4.7 µM)
- MIC (Neisseria gonorrhoeae; NCTC13822, NCTC 13822): 2 µg/mL (≈ 4.7 µM)
- MIC (Neisseria gonorrhoeae; TCDC-NG08107): 2 µg/mL (≈ 4.7 µM)
- MIC90 (Neisseria gonorrhoeae; panel of 75 clinical isolates): 2 µg/mL (≈ 4.7 µM)
- MIC (Neisseria gonorrhoeae; several isolates of the panel): 0.03 to 0.5 µg/mL (≈ 0.0705 to 1.18 µM)
- Response (death/test) ([1]; 100 mg/kg): 0/3
- Response (death/test) ([1]; 100 mg/kg, 24 h): 0/3
- Response (death/test) ([1]; 100 mg/kg, 48 h): 0/3
- Response (death/test) ([1]; 100 mg/kg, 72 h): 0/3
- Response (death/test) ([1]; 200 mg/kg): 0/3
- Response (death/test) ([1]; 400 mg/kg): 0/3
- inhibition at 10 µM [2]: ≤ 13%
